# Target: T1, hFAAH (Homo sapiens, UniProt O00519)
# T1 construct: expressed in transfected cells; host or cells: HEK293-TRex (Invitrogen) stably transfected with hFAAH in the pcDNA5-Tet-off vector, or T84 human colon epithelial cells (endogenous hFAAH); used as a microsomal preparation
# T1 sequence (O00519 1-579): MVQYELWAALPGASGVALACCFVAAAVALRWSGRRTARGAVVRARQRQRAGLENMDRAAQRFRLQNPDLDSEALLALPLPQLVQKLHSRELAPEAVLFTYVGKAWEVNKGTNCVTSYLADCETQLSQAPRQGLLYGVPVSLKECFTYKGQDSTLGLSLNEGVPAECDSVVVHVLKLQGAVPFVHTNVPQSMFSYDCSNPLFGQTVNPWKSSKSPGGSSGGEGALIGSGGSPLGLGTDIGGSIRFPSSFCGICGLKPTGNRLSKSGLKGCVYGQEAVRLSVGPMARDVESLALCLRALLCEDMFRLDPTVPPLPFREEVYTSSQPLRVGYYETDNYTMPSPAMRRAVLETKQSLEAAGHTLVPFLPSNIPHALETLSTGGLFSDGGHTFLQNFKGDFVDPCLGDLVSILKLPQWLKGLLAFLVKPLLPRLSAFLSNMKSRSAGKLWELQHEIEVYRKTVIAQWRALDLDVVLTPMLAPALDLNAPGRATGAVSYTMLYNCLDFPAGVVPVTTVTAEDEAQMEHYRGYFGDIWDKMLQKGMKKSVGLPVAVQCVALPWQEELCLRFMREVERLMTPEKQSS
# Assay: Fluorimetric assay with hFAAH microsomes (enzymatic, fluorescence based)
# Assay type: biochemical
# Conditions: compound at 1 uM, AA-AMC substrate
# Method in brief: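 Microsomes from T84 cells (endogenous hFAAH) or doxycycline-induced HEK293-TRex cells stably expressing hFAAH, 10 μg per well, in 50 mM HEPES pH 7.4, 1 mM EDTA, 1.4 mg/mL BSA with 2 μM AA-AMC. Kinetic fluorescence read (ex 355/em 460 nm, 275 cycles); activity as % inhibition, 7 concentrations in duplicate.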
row,SMILES,inhibition at 1 µM [%]
1,"Cc1nc(C)c(CNC(=O)N2Cc3ncnc(Nc4cnc5ccccc5c4)c3C2)s1 [Compound 48, 4-(Quinolin-3-ylamino)-5,7-dihydro-pyrrolo[3,4-d]pyrimidine-6-carboxylic acid (2,4-dimethyl-thiazol-5-ylmethyl)-amide]",< 25
2,"O=C(CN1CCCCC1)N1Cc2ncnc(Nc3cnc4ccccc4c3)c2C1 [Compound 53, 2-Piperidin-1-yl-1-[4-(quinolin-3-ylamino)-5,7-dihydro-pyrrolo[3,4-d]pyrimidin-6-yl]-ethanone]",< 25
3,"O=S(=O)(CCc1ccccc1)N1Cc2ncnc(Nc3cnc4ccccc4c3)c2C1 [Compound 82, [6-(2-Phenyl-ethanesulfonyl)-6,7-dihydro-5H-pyrrolo[3,4-d]pyrimidin-4-yl]-quinolin-3-yl-amine]",< 25
4,"CC(C1CCC1)N1Cc2ncnc(Nc3cnc4ccccc4c3)c2C1 (stereo not shown) [Compound 36, [6-(1-Cyclobutyl-ethyl)-6,7-dihydro-5H-pyrrolo[3,4-d]pyrimidin-4-yl]-quinolin-3-yl-amine]",> 25
5,"CC(C)CCN1Cc2ncnc(Nc3cnc4ccccc4c3)c2C1 [Compound 9, [6-(3-Methyl-butyl)-6,7-dihydro-5H-pyrrolo[3,4-d]pyrimidin-4-yl]-quinolin-3-yl-amine]",> 50
6,"CC(C1CCCC1)N1Cc2ncnc(Nc3cnc4ccccc4c3)c2C1 (stereo not shown) [Compound 37, [6-(1-Cyclopentyl-ethyl)-6,7-dihydro-5H-pyrrolo[3,4-d]pyrimidin-4-yl]-quinolin-3-yl-amine]",> 50
7,"CC(C)(C)OC(=O)N1Cc2ncnc(Nc3cnc4ccccc4c3)c2C1 [Compound 45, 4-(Quinolin-3-ylamino)-5,7-dihydro-pyrrolo[3,4-d]pyrimidine-6-carboxylic acid tert-butyl ester]",> 50
8,"Fc1cccc(CN2Cc3ncnc(Nc4cnc5ccccc5c4)c3C2)c1F [Compound 107, [6-(2,3-Difluoro-benzyl)-6,7-dihydro-5H-pyrrolo[3,4-d]pyrimidin-4-yl]-quinolin-3-yl-amine]",> 75
9,"FC(F)Oc1ccccc1CN1Cc2ncnc(Nc3cnc4ccccc4c3)c2C1 [Compound 105, [6-(2-Difluoromethoxy-benzyl)-6,7-dihydro-5H-pyrrolo[3,4-d]pyrimidin-4-yl]-quinolin-3-yl-amine]",> 75
10,"O=S(=O)(C1CCCCC1)N1Cc2ncnc(Nc3cnc4ccccc4c3)c2C1 [Compound 64, (6-Cyclohexanesulfonyl-6,7-dihydro-5H-pyrrolo[3,4-d]pyrimidin-4-yl)-quinolin-3-yl-amine]",> 50
11,"O=S(=O)(c1ccccc1)N1Cc2ncnc(Nc3cnc4ccccc4c3)c2C1 [Compound 65, (6-Benzenesulfonyl-6,7-dihydro-5H-pyrrolo[3,4-d]pyrimidin-4-yl)-quinolin-3-yl-amine]",> 25
12,"CCN1Cc2ncnc(Nc3cnc4ccccc4c3)c2C1 [Compound 3, (6-Ethyl-6,7-dihydro-5H-pyrrolo[3,4-d]pyrimidin-4-yl)-quinolin-3-yl-amine]",< 25
13,"Cc1ccc(C)c(CN2Cc3ncnc(Nc4cnc5ccccc5c4)c3C2)c1 [Compound 89, [6-(2,5-Dimethyl-benzyl)-6,7-dihydro-5H-pyrrolo[3,4-d]pyrimidin-4-yl]-quinolin-3-yl-amine]",> 75
14,"c1ccc(CN2Cc3ncnc(Nc4cnc5ccccc5c4)c3C2)cc1 [Compound 1, (6-Benzyl-6,7-dihydro-5H-pyrrolo[3,4-d]pyrimidin-4-yl)-quinolin-3-yl-amine]",> 75
15,"c1cc2c(c(CN3Cc4ncnc(Nc5cnc6ccccc6c5)c4C3)c1)OCC2 [Compound 101, [6-(2,3-Dihydro-benzofuran-7-ylmethyl)-6,7-dihydro-5H-pyrrolo[3,4-d]pyrimidin-4-yl]-quinolin-3-yl-amine]",> 75
16,"CCCN1Cc2ncnc(Nc3cnc4ccccc4c3)c2C1 [Compound 4, (6-Propyl-6,7-dihydro-5H-pyrrolo[3,4-d]pyrimidin-4-yl)-quinolin-3-yl-amine]",< 25
17,"Cc1nc(C(F)(F)F)ccc1CN1Cc2ncnc(Nc3cnc4ccccc4c3)c2C1 [Compound 74, [6-(2-Methyl-6-trifluoromethyl-pyridin-3-ylmethyl)-6,7-dihydro-5H-pyrrolo[3,4-d]pyrimidin-4-yl]-quinolin-3-yl-amine]",> 25
18,"CC(CN1Cc2ncnc(Nc3cnc4ccccc4c3)c2C1)c1ccccc1 (stereo not shown) [Compound 19, [6-(2-Phenyl-propyl)-6,7-dihydro-5H-pyrrolo[3,4-d]pyrimidin-4-yl]-quinolin-3-yl-amine]",> 75
19,"O=S(=O)(c1ccccc1OC(F)(F)F)N1Cc2ncnc(Nc3cnc4ccccc4c3)c2C1 [Compound 70, Quinolin-3-yl-[6-(2-trifluoromethoxy-benzenesulfonyl)-6,7-dihydro-5H-pyrrolo[3,4-d]pyrimidin-4-yl]-amine]",> 25
20,"CC(C)(C)CN1Cc2ncnc(Nc3cnc4ccccc4c3)c2C1 [Compound 11, [6-(2,2-Dimethyl-propyl)-6,7-dihydro-5H-pyrrolo[3,4-d]pyrimidin-4-yl]-quinolin-3-yl-amine]",> 25
21,"CCOc1ccccc1CN1Cc2ncnc(Nc3cnc4ccccc4c3)c2C1 [Compound 100, [6-(2-Ethoxy-benzyl)-6,7-dihydro-5H-pyrrolo[3,4-d]pyrimidin-4-yl]-quinolin-3-yl-amine]",> 75
22,"FC(F)(F)c1ccccc1CN1Cc2ncnc(Nc3cnc4ccccc4c3)c2C1 [Compound 95, Quinolin-3-yl-[6-(2-trifluoromethyl-benzyl)-6,7-dihydro-5H-pyrrolo[3,4-d]pyrimidin-4-yl]-amine]",> 75
23,"CC1(CN2Cc3ncnc(Nc4cnc5ccccc5c4)c3C2)COC1 [Compound 29, [6-(3-Methyl-oxetan-3-ylmethyl)-6,7-dihydro-5H-pyrrolo[3,4-d]pyrimidin-4-yl]-quinolin-3-yl-amine]",> 25
24,"Cc1ccccc1CN1Cc2ncnc(Nc3cnc4ccccc4c3)c2C1 [Compound 92, [6-(2-Methyl-benzyl)-6,7-dihydro-5H-pyrrolo[3,4-d]pyrimidin-4-yl]-quinolin-3-yl-amine]",> 75
25,"c1ccc2ncc(Nc3ncnc4c3CN(Cc3cccc5cc[nH]c35)C4)cc2c1 [Compound 110, [6-(1H-Indol-7-ylmethyl)-6,7-dihydro-5H-pyrrolo[3,4-d]pyrimidin-4-yl]-quinolin-3-yl-amine]",> 75
26,"COC(=O)c1ccc(S(=O)(=O)N2Cc3ncnc(Nc4cnc5ccccc5c4)c3C2)o1 [Compound 68, 5-[4-(Quinolin-3-ylamino)-5,7-dihydro-pyrrolo[3,4-d]pyrimidine-6-sulfonyl]-furan-2-carboxylic acid methyl ester]",> 75
27,"Cc1ccccc1S(=O)(=O)N1Cc2ncnc(Nc3cnc4ccccc4c3)c2C1 [Compound 59, Quinolin-3-yl-[6-(toluene-2-sulfonyl)-6,7-dihydro-5H-pyrrolo[3,4-d]pyrimidin-4-yl]-amine]",> 75
28,"Cc1nc(C)c(S(=O)(=O)N2Cc3ncnc(Nc4cnc5ccccc5c4)c3C2)s1 [Compound 61, [6-(2,4-Dimethyl-thiazole-5-sulfonyl)-6,7-dihydro-5H-pyrrolo[3,4-d]pyrimidin-4-yl]-quinolin-3-yl-amine]",> 50

# Source: patent US20110257208A1, “COMPOUNDS USEFUL AS FAAH MODULATORS AND USES THEREOF” (priority 2008, published 2011)
